This passage reports IC50 results from patent US20230022157A1 (Achillion Pharmaceuticals, Inc., priority 2018, published 2023).

Read-outs that look alike come from different tables or passages of the source.

The assay has as its target T1, Human Factor D (Homo sapiens, UniProt P00746).
T1 construct: purified from human serum; purchased Complement Technology, Inc; host or cells: human serum (natural protein, not recombinant)
As to the kind of experiment: Human Factor D Assay. The assay is classed as biochemical. The following applies: Human Factor D 80 nM, substrate Z-L-Lys-SBzl, read-out: IC50 (Stars). The method, then: Human Factor D (purified from human serum, Complement Technology, Inc.) at 80 nM final concentration is incubated with test compound at various concentrations for 5 min at room temperature in 50 mM Tris, 1M NaCl, pH 7.5. A synthetic substrate Z-L-Lys-SBzl and DTNB (Ellman's reagent) are added to final concentrations of 100 μM each. […] IC50 values are calculated by nonlinear regression of complement Factor D reaction rates as a function of test compound concentration.

T1 sequence (P00746 26-253): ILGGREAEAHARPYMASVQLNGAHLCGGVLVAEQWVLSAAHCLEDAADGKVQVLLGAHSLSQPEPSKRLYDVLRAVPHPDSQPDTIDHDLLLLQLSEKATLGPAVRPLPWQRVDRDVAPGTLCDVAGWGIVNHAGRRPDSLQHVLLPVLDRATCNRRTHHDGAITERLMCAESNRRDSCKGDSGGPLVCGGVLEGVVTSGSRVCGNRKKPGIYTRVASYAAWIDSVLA

As for `CC(=O)c1cn(CC(=O)N2[C@H](C(=O)Nc3nc(Br)ccc3C)C[C@@]3(C)C[C@@H]23)c2ccc(-c3cnc4cc(C)nn4c3)cc12` [Compound 202, (1R,3S,5R)-2-(2-(3-acetyl-5-(2-methylpyrazolo[1,5-a]pyrimidin-6-yl)-1H-indol-1-yl)acetyl)-N-(6-bromo-3-methylpyridin-2-yl)-5-methyl-2-azabicyclo[3.1.0]hexane-3-carboxamide], the half-maximal inhibitory concentration (IC50) (Table 2) is below 1000 nM.

For `CC(=O)c1cn(CC(=O)N2[C@H](C(=O)Nc3nc(Br)c(F)cc3C)C[C@@]3(C)C[C@@H]23)c2c(C)cc(-c3cnc(CF)nc3)cc12` [Compound 217, (1R,3S,5R)-2-(2-(3-acetyl-5-(2-(fluoromethyl)pyrimidin-5-yl)-7-methyl-1H-indol-1-yl)acetyl)-N-(6-bromo-5-fluoro-3-methylpyridin-2-yl)-5-methyl-2-azabicyclo[3.1.0]hexane-3-carboxamide], the IC50 (Table 2) was below 1000 nM.

`CC(=O)c1cn(CC(=O)N2[C@H](C(=O)Nc3nc(Br)ccc3Cl)C[C@@]3(C)C[C@@H]23)c2c(C)cc(-c3cnc(CO)nc3)cc12` [Compound 84, (1R,3S,5R)-2-(2-(3-acetyl-5-(2-(hydroxymethyl)pyrimidin-5-yl)-7-methyl-1H-indol-1-yl)acetyl)-N-(6-bromo-3-chloropyridin-2-yl)-5-methyl-2-azabicyclo[3.1.0]hexane-3-carboxamide]: the IC50 (Table 2) is below 1000 nM.

On to `CC(=O)c1cn(CC(=O)N2[C@H](C(=O)Nc3nc(Br)ccc3C)C[C@@]3(C)C[C@@H]23)c2c(C)cc(-c3cnc4cc(C5CC5)nn4c3)cc12` [Compound 195, (1R,3S,5R)-2-(2-(3-acetyl-5-(2-cyclopropylpyrazolo[1,5-a]pyrimidin-6-yl)-7-methyl-1H-indol-1-yl)acetyl)-N-(6-bromo-3-methylpyridin-2-yl)-5-methyl-2-azabicyclo[3.1.0]hexane-3-carboxamide], for which the IC50 (Table 2) was below 1000 nM.

For the compound `C#CCC(Cc1ccccc1)NC(=O)[C@@H]1C[C@@]2(C)C[C@H]2N1C(=O)Cn1nc(C(C)=O)c2cc(-c3cnc(C)nc3)cc(C)c21` (stereo partly drawn) [Compound 175, (1R,3S,5R)-2-{2-[3-acetyl-7-methyl-5-(2-methylpyrimidin-5-yl)indazol-1-yl]acetyl}-5-methyl-N-(1-phenylpent-4-yn-2-yl)-2-azabicyclo[3.1.0]hexane-3-carboxamide], the half-inhibitory concentration (IC50) (Table 2) was below 1000 nM.

As to `CC(=O)c1cn(CC(=O)N2[C@H](C(=O)Nc3cc(C)cc(Br)n3)C[C@@]3(C)C[C@@H]23)c2c(C)cc(-c3cnc(C)nc3)cc12` [Compound 193, (1R,3S,5R)-2-(2-(3-acetyl-7-methyl-5-(2-methylpyrimidin-5-yl)-1H-indol-1-yl)acetyl)-N-(6-bromo-4-methylpyridin-2-yl)-5-methyl-2-azabicyclo[3.1.0]hexane-3-carboxamide], the IC50 (Table 2) is below 1000 nM.

For `CC(=O)c1nn(CC(=O)N2[C@H](C(=O)NCCc3ccccn3)C[C@@]3(C)C[C@@H]23)c2c(C)cc(-c3cnc(C)nc3)cc12` [Compound 6, (1R,3S,5R)-2-(2-(3-Acetyl-7-methyl-5-(2-methylpyrimidin-5-yl)-1H-indazol-1-yl)acetyl)-5-methyl-N-(2-(pyridin-2-yl)ethyl)-2-azabicyclo[3.1.0]hexane-3-carboxamide], the half-maximal inhibitory concentration (IC50) (assay of Example 3) was below 1000 nM.

As for `CC(=O)c1nn(CC(=O)N2[C@H](C(=O)Nc3nc(Br)ccc3C)C[C@@]3(C)C[C@@H]23)c2ccc(-c3cnc(C(=O)O)nc3)cc12` [Compound 47, 5-(3-acetyl-1-(2-((1R,3S,5R)-3-((6-bromo-3-methylpyridin-2-yl)carbamoyl)-5-methyl-2-azabicyclo[3.1.0]hexan-2-yl)-2-oxoethyl)-1H-indazol-5-yl)pyrimidine-2-carboxylic acid], the IC50 (Table 2) is below 1000 nM.

With `CC(=O)c1cn(CC(=O)N2[C@H]3CC[C@H](C3)[C@H]2C(=O)Nc2nc(Br)ccc2C)c2c(C)cc(-c3cnc(C)nc3)cc12` [Compound 178, (1S,3S,4R)-2-(2-(3-acetyl-7-methyl-5-(2-methylpyrimidin-5-yl)-1H-indol-1-yl)acetyl)-N-(6-bromo-3-methylpyridin-2-yl)-2-azabicyclo[2.2.1]heptane-3-carboxamide], under “Table 2”, the IC50 is below 1000 nM.

For `CC(=O)c1cn(CC(=O)N2[C@H](C(=O)Nc3nc(C(F)(F)F)ccc3C)C[C@@]3(C)C[C@@H]23)c2c(C)cc(-c3cnc4cc(CO)nn4c3)cc12` [Compound 226, (1R,3S,5R)-2-(2-(3-acetyl-5-(2-(hydroxymethyl)pyrazolo[1,5-a]pyrimidin-6-yl)-7-methyl-1H-indol-1-yl)acetyl)-5-methyl-N-(3-methyl-6-(trifluoromethyl)pyridin-2-yl)-2-azabicyclo[3.1.0]hexane-3-carboxamide], the 50% inhibitory concentration (IC50) (Table 2) was below 1000 nM.

With `CC(=O)c1nn(CC(=O)N2[C@H](C(=O)NC(C)Cc3cnccn3)C[C@@]3(C)C[C@@H]23)c2c(C)cc(-c3cnc(C)nc3)cc12` (stereo partly drawn) [Compound 188, (1R,3S,5R)-2-{2-[3-acetyl-7-methyl-5-(2-methylpyrimidin-5-yl)indazol-1-yl]acetyl}-5-methyl-N-[1-(pyrazin-2-yl)propan-2-yl]-2-azabicyclo[3.1.0]hexane-3-carboxamide], the IC50 (Table 2) is below 1000 nM.

For `Cc1ncc(-c2cc3c(C(N)=O)nn(CC(=O)N4[C@H](C(=O)Nc5nc(Br)c(F)cc5C)C[C@@]5(C)C[C@@H]45)c3c(CO)n2)cn1` [Compound 184, 1-(2-((1R,3S,5R)-3-((6-bromo-5-fluoro-3-methylpyridin-2-yl)carbamoyl)-5-methyl-2-azabicyclo[3.1.0]hexan-2-yl)-2-oxoethyl)-7-(hydroxymethyl)-5-(2-methylpyrimidin-5-yl)-1H-pyrazol[3,4-c]pyridine-3-carboxamide], the half-maximal inhibitory concentration (IC50) (Table 2) is below 1000 nM.

Regarding `CC(=O)c1cn(CC(=O)N2[C@H](C(=O)Nc3cncc(Br)n3)C[C@@]3(C)C[C@@H]23)c2c(C)cc(-c3cnc(C(C)O)nc3)cc12` (stereo partly drawn) [Compound 159, (1R,3S,5R)-2-(2-(3-acetyl-5-(2-(1-hydroxyethyl)pyrimidin-5-yl)-7-methyl-1H-indol-1-yl)acetyl)-N-(6-bromopyrazin-2-yl)-5-methyl-2-azabicyclo[3.1.0]hexane-3-carboxamide], for the setting “Table 2”, the 50% inhibitory concentration (IC50) was below 1000 nM.

For the compound `CC(=O)c1nn(CC(=O)N2[C@H](C(=O)NCCc3ccncc3)C[C@@]3(C)C[C@@H]23)c2c(C)cc(-c3cnc(C)nc3)cc12` [Compound 8, (1R,3S,5R)-2-(2-(3-Acetyl-7-methyl-5-(2-methylpyrimidin-5-yl)-1H-indazol-1-yl)acetyl)-5-methyl-N-(2-(pyridin-4-yl)ethyl)-2-azabicyclo[3.1.0]hexane-3-carboxamide], for the setting “assay of Example 3”, the half-maximal inhibitory concentration (IC50) was 1000 to 10000 nM.

Consider `CC(=O)c1nn(CC(=O)N2[C@H](C(=O)NC(C)Cc3cccc(F)c3)C[C@@]3(C)C[C@@H]23)c2c(C)cc(-c3cnc(C)nc3)cc12` (stereo partly drawn) [Compound 187, (1R,3S,5R)-2-{2-[3-acetyl-7-methyl-5-(2-methylpyrimidin-5-yl)indazol-1-yl]acetyl}-N-[1-(3-fluorophenyl)propan-2-yl]-5-methyl-2-azabicyclo[3.1.0]hexane-3-carboxamide], for which the concentration for half-maximal inhibition (IC50) (Table 2) was below 1000 nM.

Take `CC(=O)c1nn(CC(=O)N2[C@H](C(=O)Nc3nc(Br)ccc3C)C[C@@]3(C)C[C@@H]23)c2c(C)cc(-c3cnc(C(C)(C)O)nc3)cc12` [Compound 41, (1R,3S,5R)-2-(2-(3-acetyl-5-(2-(2-hydroxypropan-2-yl)pyrimidin-5-yl)-7-methyl-1H-indazol-1-yl)acetyl)-N-(6-bromo-3-methylpyridin-2-yl)-5-methyl-2-azabicyclo[3.1.0]hexane-3-carboxamide]: the IC50 (Table 2) was below 1000 nM.

On to `CC(=O)c1nn(CC(=O)N2[C@H]3CC[C@H](C3)[C@H]2C(=O)Nc2nc(C(F)(F)F)ccc2C)c2ccc(-c3cnc4cc(C)nn4c3)cc12` [Compound 213, (1S,3S,4R)-2-(2-(3-acetyl-5-(2-methylpyrazolo[1,5-a]pyrimidin-6-yl)-1H-indazol-1-yl)acetyl)-N-(3-methyl-6-(trifluoromethyl)pyridin-2-yl)-2-azabicyclo[2.2.1]heptane-3-carboxamide], for which, under “Table 2”, the IC50 is below 1000 nM.

For the compound `CC(=O)c1cn(CC(=O)N2[C@H](C(=O)Nc3nc(C(F)(F)F)ccc3C)C[C@@]3(C)C[C@@H]23)c2c(C)cc(-c3cnc(CF)nc3)cc12` [Compound 220, (1R,3S,5R)-2-(2-(3-acetyl-5-(2-(fluoromethyl)pyrimidin-5-yl)-7-methyl-1H-indol-1-yl)acetyl)-5-methyl-N-(3-methyl-6-(trifluoromethyl)pyridin-2-yl)-2-azabicyclo[3.1.0]hexane-3-carboxamide], the 50% inhibitory concentration (IC50) (Table 2) was below 1000 nM.

Turning to `COC(=O)c1ncc(-c2cc(C)c3c(c2)c(C(C)=O)nn3CC(=O)N2[C@H](C(=O)Nc3nc(C(F)(F)F)ccc3C)C[C@@]3(C)C[C@@H]23)cn1` [Compound 50, Methyl 5-(3-acetyl-7-methyl-1-(2-((1R,3S,5R)-5-methyl-3-((3-methyl-6-(trifluoromethyl)pyridin-2-yl)carbamoyl)-2-azabicyclo[3.1.0]hexan-2-yl)-2-oxoethyl)-1H-indazol-5-yl)pyrimidine-2-carboxylate], under “Table 2”, the concentration for half-maximal inhibition (IC50) was below 1000 nM.

`CC(=O)c1nn(CC(=O)N2[C@H](C(=O)Nc3nc(Br)ccc3C)C[C@@]3(C)C[C@@H]23)c2ccc(-c3cncc(C4(C(=O)O)CC4)c3)cc12` [Compound 98, 1-(5-(3-acetyl-1-(2-((1R,3S,5R)-3-((6-bromo-3-methylpyridin-2-yl)carbamoyl)-5-methyl-2-azabicyclo[3.1.0]hexan-2-yl)-2-oxoethyl)-1H-indazol-5-yl)pyridin-3-yl)cyclopropane-1-carboxylic acid]: the half-inhibitory concentration (IC50) (Table 2) is below 1000 nM.
